Data taken from patent publication US10399989B2, “Pyrazolopyrimidine derivatives as BTK inhibitors for the treatment of cancer” (Loxo Oncology, Inc., priority 2016, dated 2019).
Like-named read-outs stand apart in the source and are kept apart here.

Assays:
[1] = test system: OCI-Ly10 human DLBCL cells; assay: OCI-Ly10 anti-proliferative activity (Resazurin, 72 h); assay type: cell-based; settings: Homo sapiens, OCI-Ly10, 72 h, read-out: Proliferation OCI-Ly10-IC50
Method in brief: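 Resazurin fluorescence (590 nm, 5 h dye incubation) read after 72 h compound exposure at 37 °C; NFκB-dependent cells seeded at 7.5×10^3/well in 2.5% FBS medium. Day 0 signal subtracted, values normalised to DMSO control; IC50 from log[inhibitor] vs response, variable-slope fit.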

EGFR = EGFR (Homo sapiens (Human), UniProt P00533); assay: EGFR binding affinity (TR-FRET, LanthaScreen); settings: 5 h incubation
Method in brief: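 IC50 derived by variable-slope fit of TR-FRET signal (ex 340, em 615 and 665 nm) against inhibitor concentration. Mix contained recombinant GST-detected EGFR at 2.5 nM, Eu anti-GST antibody at 2 nM and Kinase Tracer 199 at 3 nM in Kinase Buffer A, 5 h incubation.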

BTK^C481S = BTK^C481S (Homo sapiens (Human), UniProt Q06187, C481S); assay: BTK^C481S binding affinity (TR-FRET, LanthaScreen); settings: 5 h incubation
Method in brief: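 Tracer-displacement TR-FRET: 5 nM recombinant kinase, 2 nM Eu anti-His antibody and 30 nM Kinase Tracer 236 incubated 5 h with varying inhibitor in Kinase Buffer A. Read at 340 nm excitation, 615/665 nm emission. IC50 from log[inhibitor]–response variable-slope fit.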

BTK^WT = BTK^WT (Homo sapiens (Human), UniProt Q06187); assay: BTK^WT binding affinity (TR-FRET, LanthaScreen)
Method in brief: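 Tracer-displacement TR-FRET: 2.5 nM recombinant BTK, 2 nM Eu anti-His antibody and 15 nM Kinase Tracer 236 in Kinase Buffer A with inhibitor for 5 h. Emission read at 615/665 nm (excitation 340 nm); IC50 from variable-slope fit of log concentration vs response.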

[2] = TR-FRET binding, 5 h incubation, read-out: BTK^WT IC50

BTK^WT, sequence (Q06187 whole entry): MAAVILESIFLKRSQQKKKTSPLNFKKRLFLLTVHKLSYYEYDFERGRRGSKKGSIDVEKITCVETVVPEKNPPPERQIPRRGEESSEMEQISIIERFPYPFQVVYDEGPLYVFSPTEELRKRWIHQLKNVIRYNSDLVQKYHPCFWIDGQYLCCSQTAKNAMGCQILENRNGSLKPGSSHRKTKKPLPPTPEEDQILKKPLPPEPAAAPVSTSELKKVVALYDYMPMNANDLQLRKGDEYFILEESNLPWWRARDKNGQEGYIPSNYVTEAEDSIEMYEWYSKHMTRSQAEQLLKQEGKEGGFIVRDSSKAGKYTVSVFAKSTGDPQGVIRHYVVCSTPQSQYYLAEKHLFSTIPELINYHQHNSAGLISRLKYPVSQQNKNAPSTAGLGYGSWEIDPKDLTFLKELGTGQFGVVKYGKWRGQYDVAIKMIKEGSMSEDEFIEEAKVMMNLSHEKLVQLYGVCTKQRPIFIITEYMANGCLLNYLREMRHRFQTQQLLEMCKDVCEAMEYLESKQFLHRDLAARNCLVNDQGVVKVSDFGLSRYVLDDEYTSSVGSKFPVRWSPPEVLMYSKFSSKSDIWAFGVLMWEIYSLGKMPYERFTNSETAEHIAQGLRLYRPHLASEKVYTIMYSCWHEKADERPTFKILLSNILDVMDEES
BTK^C481S, sequence (Q06187 whole entry C481S): as the sequence (Q06187 whole entry) above, with C481S counted along it
EGFR, sequence (P00533 25-1210): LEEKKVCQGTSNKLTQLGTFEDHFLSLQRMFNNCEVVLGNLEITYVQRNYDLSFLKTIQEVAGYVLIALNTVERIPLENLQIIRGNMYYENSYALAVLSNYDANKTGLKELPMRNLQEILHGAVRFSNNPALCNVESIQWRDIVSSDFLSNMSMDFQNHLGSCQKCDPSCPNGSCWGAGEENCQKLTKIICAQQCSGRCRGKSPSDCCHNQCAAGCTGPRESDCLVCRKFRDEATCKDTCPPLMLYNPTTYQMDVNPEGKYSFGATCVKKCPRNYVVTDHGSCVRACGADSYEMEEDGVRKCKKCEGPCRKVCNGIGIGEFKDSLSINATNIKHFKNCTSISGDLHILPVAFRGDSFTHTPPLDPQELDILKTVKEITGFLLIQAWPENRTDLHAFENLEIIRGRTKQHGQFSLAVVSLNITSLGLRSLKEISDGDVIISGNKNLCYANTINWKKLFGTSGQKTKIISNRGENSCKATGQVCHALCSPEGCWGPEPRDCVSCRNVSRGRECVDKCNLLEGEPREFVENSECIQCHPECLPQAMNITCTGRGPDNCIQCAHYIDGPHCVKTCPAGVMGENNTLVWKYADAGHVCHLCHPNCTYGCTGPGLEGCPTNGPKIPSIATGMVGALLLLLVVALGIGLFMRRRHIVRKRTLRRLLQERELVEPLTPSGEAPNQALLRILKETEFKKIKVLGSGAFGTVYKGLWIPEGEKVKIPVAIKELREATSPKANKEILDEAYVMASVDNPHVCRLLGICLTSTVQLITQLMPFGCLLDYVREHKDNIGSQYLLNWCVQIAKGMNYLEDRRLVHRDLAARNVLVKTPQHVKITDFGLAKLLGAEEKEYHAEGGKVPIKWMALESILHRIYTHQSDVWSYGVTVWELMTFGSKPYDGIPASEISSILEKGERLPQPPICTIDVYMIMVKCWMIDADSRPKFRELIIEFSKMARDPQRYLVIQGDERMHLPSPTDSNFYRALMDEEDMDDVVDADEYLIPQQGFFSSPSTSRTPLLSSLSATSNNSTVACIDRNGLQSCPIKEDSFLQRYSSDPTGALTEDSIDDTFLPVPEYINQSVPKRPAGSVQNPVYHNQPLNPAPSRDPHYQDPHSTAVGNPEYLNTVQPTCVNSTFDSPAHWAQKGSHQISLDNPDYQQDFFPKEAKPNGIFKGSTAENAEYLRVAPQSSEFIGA

| SMILES | IC50 [1] [nM] | IC50 (EGFR) [nM] | IC50 (BTK^C481S) [nM] | IC50 (BTK^WT; [2]) [nM] | IC50 (BTK^WT; Table 6, numeric values, read-out: BTK Binding IC50) [nM] |
| --- | --- | --- | --- | --- | --- |
| COCCO[C@H]1C=C[C@H](n2nc(-c3ccc(CNC(=O)c4ccccc4OC)cc3)c3c(N)ncnc32)C1 [Example 57, N-[[4-[4-amino-1-[(1R,4R)-4-(2-methoxyethoxy)cyclopent-2-en-1-yl]pyrazolo[3,4-d]pyrimidin-3-yl]phenyl]methyl]-2-methoxy-benzamide] | 100 to 1000 | 1000 to 10000 | 1000 to 10000 | 100 to 1000 |  |
| COCCNc1ncnc2c1c(-c1ccc(CNC(=O)c3ccccc3OC)cc1)nn2[C@H]1C=C[C@H](O)C1 [Example 58, N-[[4-[1-[(1R,4R)-4-hydroxycyclopent-2-en-1-yl]-4-(2-methoxyethylamino)pyrazolo[3,4-d]pyrimidin-3-yl]phenyl]methyl]-2-methoxy-benzamide] | 100 to 1000 | 1000 to 10000 | ≤ 10 | ≤ 10 |  |
| COc1ccccc1C(=O)NCc1ccc(-c2nn([C@H]3C=C[C@H](n4ccnn4)C3)c3ncnc(N)c23)cc1 [Example 61, N-[[4-[4-amino-1-[(1R,4R)-4-(triazol-1-yl)cyclopent-2-en-1-yl]pyrazolo[3,4-d]pyrimidin-3-yl]phenyl]methyl]-2-methoxy-benzamide] | 100 to 1000 | 1000 to 10000 | ≤ 10 | ≤ 10 |  |
| COc1ccccc1C(=O)NCc1ccc(-c2nn(C3CCC(C)C3)c3ncnc(N)c23)cc1 (stereo not shown) [Example 62, N-[[4-[4-amino-1-(3-methylcyclopentyl)pyrazolo[3,4-d]pyrimidin-3-yl]phenyl]methyl]-2-methoxy-benzamide] | 10 to 100 | 100 to 1000 | ≤ 10 | ≤ 10 |  |
| COc1ccc(F)cc1C(=O)NCc1ccc(-c2nn(C3CCCC3)c3ncnc(N)c23)cc1F [Example 63, N-[[4-(4-Amino-1-cyclopentyl-pyrazolo[3,4-d]pyrimidin-3-yl)-2-fluoro-phenyl]methyl]-5-fluoro-2-methoxy-benzamide] | 10 to 100 | 1000 to 10000 | ≤ 10 | ≤ 10 |  |
| COc1ccc(C)cc1C(=O)NCc1ccc(-c2nn(C3CCCC3)c3ncnc(N)c23)cc1F [Example 65, N-[[4-(4-amino-1-cyclopentyl-pyrazolo[3,4-d]pyrimidin-3-yl)-2-fluoro-phenyl]methyl]-2-methoxy-5-methyl-benzamide] | 100 to 1000 | 1000 to 10000 | ≤ 10 | ≤ 10 |  |
| COc1ccccc1C(=O)NCc1ccc(-c2nn(C3CCCC3)c3ncnc(N)c23)cc1F [Example 66, N-[[4-(4-amino-1-cyclopentyl-pyrazolo[3,4-d]pyrimidin-3-yl)-2-fluoro-phenyl]methyl]-2-methoxy-benzamide] | 10 to 100 | 100 to 1000 | ≤ 10 | ≤ 10 | 4 |
| Nc1ncnc2c1c(-c1ccc(CNC(=O)c3nccc4ccccc34)cc1)nn2C1CCCC1 [Example 69, N-[[4-(4-amino-1-cyclopentyl-pyrazolo[3,4-d]pyrimidin-3-yl)phenyl]methyl]isoquinoline-1-carboxamide] | 1000 to 10000 | 1000 to 10000 | 100 to 1000 | 100 to 1000 |  |
| Nc1ncnc2c1c(-c1ccc(CNC(=O)c3cccc4cccnc34)cc1)nn2C1CCCC1 [Example 70, N-[[4-(4-amino-1-cyclopentyl-pyrazolo[3,4-d]pyrimidin-3-yl)phenyl]methyl]quinoline-8-carboxamide] | 100 to 1000 | 100 to 1000 | ≤ 10 | ≤ 10 |  |
| COc1ccccc1C(=O)NCc1ccc(-c2nn(CC(C)O)c3ncnc(N)c23)cc1 (stereo not shown) [Example 74, N-[[4-[4-amino-1-(2-hydroxypropyl)pyrazolo[3,4-d]pyrimidin-3-yl]phenyl]methyl]-2-methoxy-benzamide] | 100 to 1000 | 1000 to 10000 | 10 to 100 | 10 to 100 |  |
| COc1ccccc1C(=O)NCc1ccc(-c2nn(CC(C)C)c3ncnc(N)c23)cc1 [Example 76, N-[[4-(4-amino-1-isobutyl-pyrazolo[3,4-d]pyrimidin-3-yl)phenyl]methyl]-2-methoxy-benzamide] | 100 to 1000 | 100 to 1000 | ≤ 10 | ≤ 10 |  |
| COc1ccccc1C(=O)NCc1ccc(-c2nn(C3CCCC3)c3ncnc(N)c23)cc1C [Example 89, N-[[4-(4-Amino-1-cyclopentyl-pyrazolo[3,4-d]pyrimidin-3-yl)-2-methyl-phenyl]methyl]-2-methoxy-benzamide] | 100 to 1000 | 100 to 1000 | ≤ 10 | ≤ 10 |  |

Next, values leading:

| IC50 [1] [nM] | IC50 (EGFR) [nM] | IC50 (BTK^C481S) [nM] | IC50 (BTK^WT; [2]) [nM] | IC50 (BTK^WT; Table 6, numeric values, read-out: BTK Binding IC50) [nM] | SMILES |
| --- | --- | --- | --- | --- | --- |
| 100 to 1000 | 1000 to 10000 | 10 to 100 | 10 to 100 |  | COc1ccccc1C(=O)NCc1ccc(-c2nn([C@H]3C=C[C@H](N)C3)c3ncnc(N)c23)cc1 [Example 59, N-[(4-{4-amino-1-[(1R,4R)-4-aminocyclopent-2-en-1-yl]-1H-pyrazolo[3,4-d]pyrimidin-3-yl}phenyl)methyl]-2-methoxybenzamide] |
| 100 to 1000 | 1000 to 10000 | ≤ 10 | ≤ 10 |  | COc1ccccc1C(=O)NCc1ccc(-c2nn([C@H]3C=C[C@H](NC(C)=O)C3)c3ncnc(N)c23)cc1 [Example 60, N-[[4-[1-[(1R,4R)-4-acetamidocyclopent-2-en-1-yl]-4-amino-pyrazolo[3,4-d]pyrimidin-3-yl]phenyl]methyl]-2-methoxy-benzamide] |
| 1000 to 10000 | 1000 to 10000 | 100 to 1000 | 100 to 1000 |  | COc1ccc2ccccc2c1C(=O)NCc1ccc(-c2nn(C3CCCC3)c3ncnc(N)c23)cc1 [Example 68, N-[[4-(4-amino-1-cyclopentyl-pyrazolo[3,4-d]pyrimidin-3-yl)phenyl]methyl]-2-methoxy-naphthalene-1-carboxamide] |
| 10 to 100 | > 10000 | ≤ 10 | ≤ 10 |  | COc1ccccc1C(=O)NCc1ccc(-c2nn(C3CCCC3)c3ncnc(N)c23)c(OC)c1 [Example 77, N-[[4-(4-Amino-1-cyclopentyl-pyrazolo[3,4-d]pyrimidin-3-yl)-3-methoxy-phenyl]methyl]-2-methoxy-benzamide] |
| 1000 to 10000 | > 10000 | 10 to 100 | 10 to 100 |  | COc1ccccc1C(=O)NCc1ccc(-c2nn(CC(F)(F)F)c3ncnc(N)c23)cc1 [Example 90, N-[[4-[4-Amino-1-(2,2,2-trifluoroethyl)pyrazolo[3,4-d]pyrimidin-3-yl]phenyl]methyl]-2-methoxy-benzamide] |
| 100 to 1000 | > 10000 | ≤ 10 | ≤ 10 |  | COc1ccc(F)cc1C(=O)NCc1ccc(-c2nn(CC(F)(F)F)c3ncnc(N)c23)cc1 [Example 93, N-[[4-[4-Amino-1-(2,2,2-trifluoroethyl)pyrazolo[3,4-d]pyrimidin-3-yl]phenyl]methyl]-5-fluoro-2-methoxy-benzamide] |
